From PubChem BioAssay (NCI)
“And” between values parts separate entries of the source, which are not always exact repeats. Identical values can stand only once.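 How tested: cells in 96-well plates exposed to compound for 48 hours at five concentrations. The concentration for 50% growth inhibition is given as GI50. TGI is the concentration that stops growth completely.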

Columns and labels:
Assay in all cases: DTP human tumour cell line panel, 48 h
EKVX NSCLC = test system: EKVX NSCLC
SNB-75 CNS = test system: SNB-75 CNS
OVCAR-8 ovarian = test system: OVCAR-8 ovarian
SK-MEL-2 melanoma = test system: SK-MEL-2 melanoma
SN12C renal = test system: SN12C renal
SK-MEL-5 melanoma = test system: SK-MEL-5 melanoma
TK-10 renal = test system: TK-10 renal
NCI-H226 lung = test system: NCI-H226 lung
HOP-62 NSCLC = test system: HOP-62 NSCLC
786-0 renal = test system: 786-0 renal

| Structure (SMILES) | GI50 (EKVX NSCLC) [µM] | TGI (EKVX NSCLC) [µM] | GI50 (SNB-75 CNS) [µM] | TGI (SNB-75 CNS) [µM] | GI50 (OVCAR-8 ovarian) [µM] | TGI (OVCAR-8 ovarian) [µM] | GI50 (SK-MEL-2 melanoma) [µM] | TGI (SK-MEL-2 melanoma) | GI50 (SN12C renal) [µM] | TGI (SN12C renal) | GI50 (SK-MEL-5 melanoma) [µM] | TGI (SK-MEL-5 melanoma) | GI50 (TK-10 renal) [µM] | TGI (TK-10 renal) [µM] | GI50 (NCI-H226 lung) [µM] | TGI (NCI-H226 lung) [µM] | GI50 (HOP-62 NSCLC) [µM] | TGI (HOP-62 NSCLC) [µM] | GI50 (786-0 renal) [µM] | TGI (786-0 renal) |
| --- | --- | --- | --- | --- | --- | --- | --- | --- | --- | --- | --- | --- | --- | --- | --- | --- | --- | --- | --- | --- |
| CC1=CC(C)=NN=C(N)N1S(=O)(=O)c1cc(C)c(Cl)cc1SCc1ccccc1 | 6.08 | > 100 | 23.5 | > 100 | 56.6 | > 100 | 37.2 | > 100 µM | 32.2 | > 100 µM | 40.7 | > 100 µM | > 100 | > 100 | 58.5 | > 100 | 72.4 | > 100 | 73.4 | > 100 µM |
| CC(C)N(O)C(=N)c1ccccc1 |  | > 100 |  | > 100 |  | > 100 |  | > 100 µM |  | > 100 µM |  | > 100 µM |  | > 100 |  | > 100 |  | > 100 |  | > 100 µM |
| CCN(CC)CCCC(C)Nc1ccnc2cc(Cl)ccc12 (configuration not stated) |  | > 100 | > 100 | > 100 | 57.5 | > 100 | > 100 | > 100 µM and 14.9 µM | > 100 | > 100 µM and 97.1 µM | 21.9 | 48.2 µM and 63.3 µM | 42.1 | > 100 | > 100 | > 100 | > 100 | > 100 | 67.2 | > 100 µM and 23.9 µM |
| Cc1n[nH]c(=S)n(C)c1=S |  | > 100 |  | > 100 |  | > 100 |  | > 100 µM |  | > 100 µM |  |  |  | > 100 |  | > 100 |  | > 100 |  | > 100 µM |
| COc1cc(-c2nccc3cc(OC)c(OC)cc23)ccc1O |  | > 100 |  | > 100 |  | > 100 |  | > 100 µM |  | > 100 µM |  | > 100 µM |  | > 100 |  | > 100 |  | > 100 |  | > 100 µM |
| O=C1/C=C/[C@@H](O)[C@@H]2C[C@@H](O)C[C@H]2/C=C/CCC[C@H](CCc2cccc3ccccc23)O1 | 0.0816 | 14 | 0.0358 | 14.5 | 0.0491 | 13 | 0.175 | 0.521 µM | 0.248 | 11.5 µM | 0.0171 | 0.0326 µM | 0.0861 | 0.328 | 0.0178 | 0.0351 | 0.0713 | 11.8 | 0.02 | 0.0372 µM |
| O=C1C(=C(C(F)(F)Cl)C(F)(F)Cl)C2CCC1C2 (configuration not stated) |  | > 10 |  | > 10 |  | 4.24 |  | 4.21 µM |  | 3.61 µM |  | 3.11 µM |  | 4.29 |  | > 9.06 |  | > 10 |  | 3.64 µM |
| O=C1C(=O)N(c2ccc(Cl)cc2)C(=O)C(=O)C1c1nc2ccccc2o1 |  | > 100 |  | > 100 |  | > 100 |  | > 100 µM |  | > 100 µM |  | > 100 µM |  | > 100 |  | > 100 |  | > 100 |  | > 100 µM |
| COC(=O)c1ccccc1N(C(=O)c1ccccc1)c1ccccc1C |  | > 100 |  | > 100 |  | > 100 |  | > 100 µM |  | > 100 µM |  | > 100 µM |  | > 100 |  | > 100 |  | > 100 |  | > 100 µM |
| Cc1ccc2oc(=O)cc(/C(=C3/C=CC=N3)c3ccc[nH]3)c2c1 | 0.435 | 4.51 | 0.335 | 4.46 | 0.304 | 1.07 | 0.74 | 2.89 µM | 0.672 | 3.36 µM | 0.356 | 1.29 µM | 0.47 | 4.87 | 0.753 | 4.58 | 0.533 | 5.53 | 0.279 | 0.892 µM |
| CCCCOC(=O)c1ccc(N)cc1 | 39.7 | > 100 | 41 | > 100 | > 100 | > 100 | > 100 | > 100 µM | > 100 | > 100 µM | 27.8 | > 100 µM | 92 | > 100 | 63.6 | > 100 | > 100 | > 100 | 32.4 | > 100 µM |
| C=C(CO)CC(O)c1cc(OC)ccc1OC (configuration not stated) |  | > 100 |  | > 100 |  | > 100 |  | > 100 µM |  | > 100 µM |  | > 100 µM |  | > 100 |  | > 100 |  | > 100 |  | > 100 µM |
| COc1ccc(C=Nc2c(C(=O)Nc3cccc(Cl)c3C)sc3nc(C)c(C(=O)/C=C/c4ccc(OC)cc4)cc23)cc1 | 2.24 | > 50 | 0.191 | 1.88 | 1.38 | > 50 | 0.98 | 36.1 µM | 0.853 | > 50 µM | 0.856 | > 50 µM | 4.12 | > 50 | 0.621 | 11.7 | 1.05 | > 27.5 | 0.656 | > 30 µM |
| O=C(Nc1cccc2c1C(=O)c1c(NC(=O)c3ccccc3)ccc(Nc3cccc4c3C(=O)c3ccccc3C4=O)c1C2=O)c1ccccc1 |  | > 100 |  | > 100 |  | > 100 |  | > 100 µM |  | > 100 µM |  | > 100 µM |  | > 100 |  | > 100 |  | > 100 |  | > 100 µM |
| Cc1c2ccn(O)cc2c(C)c2c1nc1ccccc12 |  | > 71.3 |  | 21.3 |  | 64.4 |  | > 50 µM |  | > 100 µM |  | > 100 µM |  | > 66.1 |  | 29 |  | 27.5 |  | 35.4 µM |
| C[C@H]1/C(=C/C(=O)OCCN(C)C)CC[C@H]2[C@H]1C(=O)C[C@H]1C(C)(C)[C@@H](O)CC[C@]21C |  | > 100 | > 100 | > 100 |  | > 100 |  | > 100 µM |  | > 100 µM |  | > 100 µM |  | > 100 |  | > 100 |  | > 100 |  | > 100 µM |
| Cn1c(=O)c(Oc2ccc(F)cc2F)cc2cnc(NC(C)(C)CO)nc21 |  |  | > 25 | > 25 | > 25 | > 25 | > 25 | > 25 µM | > 25 | > 25 µM | > 25 | > 25 µM | > 25 | > 25 | > 25 | > 25 | > 25 | > 25 | > 25 | > 25 µM |
